Assay results from patent US8530452B2, “Tricyclic boron compounds for antimicrobial therapy” (Micurx Pharmaceuticals, Inc., priority 2011, dated 2013).
Read-outs that look alike come from different tables or passages of the source. Values belong to the compound of their own block, whether it stands above or below them.

Columns and labels:
P. aeruginosa [1] = experiment: MIC determination, antibacterial activity in vitro; type: cell-based, Pseudomonas aeruginosa; conditions: for MIC: Pseudomonas aeruginosa, read-out: MIC against P. aeruginosa; for reduced potency / loss of activity vs. P. aeruginosa compared to Example 7: MIC ratio vs Example 7
Source text: (§1) The in vitro activity of compounds provided herein may be assessed by standard testing procedures such as the determination of minimum inhibitory concentration (MIC) as described in Approved Standard. Methods for Dilution Antimicrobial Susceptibility Tests for Bacteria that Grow Aerobically, 3rd ed., 1993, published by the National Committee for Clinical Laboratory standards, Villanova, Pa., USA. Low MIC values indicate high antibacterial activity, while high MIC values reveal a reduced antibacterial activity (with higher drug concentration required for pathogen eradication in the latter instance).

P. aeruginosa [2] = experiment: P. aeruginosa neutropenic mouse thigh infection model; type: in vivo; conditions: for CFU reduction / CFU reduction, fold: side-by-side test Example 1 vs Example 10, dose not given; for reduction in the bacterial colony-forming units (CFU) / reduction in the bacterial colony-forming units (CFU), fold: 30 mg/kg
Description: To establish the efficacy of the compounds provided herein in vivo, testing in a P. aeruginosa neutropenic mouse thigh infection model was performed with subcutaneous administration of test compounds analogously to the method described by Andes et al. in Antimicrobial Agents and Chemotherapy, 2002, 46(11), 3484-3489. In this model, a greater reduction in the bacterial colony-forming units (CFU) indicates more beneficial therapeutic effect (more bacterial eradication), while a lower CFU reduction indicates a lower effect (less bacterial eradication). The in vivo antibacterial effect is also referred to as efficacy, in contrast to the term potency commonly used for in vitro activity (expressed as MIC).

[3] = rat PK model of intravenous administration; type: in vivo; conditions: for AUC: in vivo
Source text: To further elucidate therapeutic potential of drug compounds, pharmacokinetic (PK) data is used to establish the key parameters predictive of the therapy outcome, such as area under the curve (AUC) for a plot monitoring the change in the systemic drug concentration over time. Thus, a higher AUC value indicates a greater exposure to the drug, commonly associated with a greater therapeutic potential due to a higher amount of drug available to combat the infection in a mammal. In contrast, a lower AUC value indicates a reduced exposure to the drug under study, resulting in a reduced amount of antibiotic available to combat bacterial infestations. To that end, the compounds provided herein have been tested in the rat PK model of intravenous administration performed analogously to methods described in the monograph Current Protocols in Pharmacology, 2005, 7.1.1-7.1.26, John Wiley & Sons, Inc.

E. coli = experiment: MIC determination, antibacterial activity in vitro; type: cell-based, Escherichia coli; conditions: MIC ratio vs Example 24
Source text: as §1

K. pneumoniae = experiment: MIC determination, antibacterial activity in vitro; type: cell-based, Klebsiela pneumoniae; conditions: for MIC: Klebsiella pneumoniae, Strain K. pneumoniae KPN1004, read-out: MIC, K. pneumoniae (footnote c)
Source text: as §1

A. baumannii = experiment: MIC determination, antibacterial activity in vitro; type: cell-based, Acinetobacter baumannii; conditions: for MIC: Acinetobacter baumannii, Strain A. baumannii MABA0001, read-out: MIC, A. baumannii (footnote b); for reduced potency / loss of activity vs. A. baumannii compared to Example 7: MIC ratio vs Example 7
Source text: as §1

Gram-negative pathogens = experiment: Antibacterial activity against Gram-negative pathogens in vitro (overall statements); type: cell-based; conditions: Table 1 pathogens overall
Source text: as §1

[4] = intravenous, dose not given, Example 1 vs Example 10, read-out: AUC
[5] = subcutaneous, side-by-side test Example 3 vs Example 24
[6] = another test, side-by-side Example 3 vs Example 25
[7] = intravenous, 10 mg/kg, read-out: exposure (AUC)

SMILES: Cl.NCC1OB2O[C@H](CO)COc3cccc1c32 (stereo partly drawn) [Example 1, ((8R)-2-(Aminomethyl)-7,8-dihydro-2H-1,6,9-trioxa-9a-borabenzo[cd]azulen-8-yl)methanol hydrochloride]
MIC (P. aeruginosa [1]): 2 to 4 µg/mL | superiority in the bacterial reduction over Example 10 (P. aeruginosa [2]; side-by-side test): 79 fold | CFU reduction (P. aeruginosa [2]): about 3.2 log | CFU reduction, fold (P. aeruginosa [2]): about 1584 fold | AUC [3, 4]: ~11500 ng·h/mL | improvement in exposure (AUC) over reference compound of Example 10 ([3]; intravenous): more than 2 fold

SMILES: Cl.NC[C@H]1OB2O[C@H](CO)COc3cccc1c32 [Example 3, ((2S,8R)-2-(Aminomethyl)-7,8-dihydro-2H-1,6,9-trioxa-9a-borabenzo[cd]azulen-8-yl)methanol hydrochloride]
improved activity against P. aeruginosa as compared to reference compound of Example 24 (P. aeruginosa [1]; MIC ratio vs Example 24): 2 fold | MIC (P. aeruginosa [1]): 2 to 4 µg/mL | improved activity against E. coli as compared to reference compound of Example 24 (E. coli): 2 fold | improved activity against K. pneumoniae as compared to reference compound of Example 24 (K. pneumoniae; MIC ratio vs Example 24): 2 fold | higher degree of pathogen reduction compared to reference compound of Example 24 (P. aeruginosa [2]; 30 mg/kg both agents): over 80 fold | more efficient in thigh infection model compared to reference compound of Example 25 (P. aeruginosa [2]; 30 mg/kg both agents): about 12 fold | reduction in the bacterial colony-forming units (CFU) (P. aeruginosa [2]; [5]): about 3.6 log | reduction in the bacterial colony-forming units (CFU), fold (P. aeruginosa [2]; [5]): about 3981 fold | reduction in the bacterial colony-forming units (CFU) (P. aeruginosa [2]; [6]): about 3.44 log | reduction in the bacterial colony-forming units (CFU), fold (P. aeruginosa [2]; [6]): about 2754 fold | AUC [3, 7]: ~14100 ng·h/mL | improvement in exposure (AUC) over reference compound of Example 24 ([3]; intravenous, 10 mg/kg): 2.7 fold | improvement in exposure (AUC) over reference compound of Example 25 ([3]; intravenous, 10 mg/kg): over 2 fold

SMILES: Cl.NCC1OB2O[C@@H](CO)COc3cccc1c32 (stereo partly drawn) [Example 4, ((8S)-2-(Aminomethyl)-7,8-dihydro-2H-1,6,9-trioxa-9a-borabenzo[cd]azulen-8-yl)methanol hydrochloride]
MIC (P. aeruginosa [1]): 2 to 4 µg/mL | MIC (A. baumannii): 4000 µg/mL | MIC (K. pneumoniae): 2000 µg/mL

SMILES: Cl.NCC1OB2OC(CO)COc3cccc1c32 (stereo not drawn) [Example 7]
MIC (P. aeruginosa [1]): 2 to 4 µg/mL | MIC (A. baumannii): 4000 µg/mL | MIC (K. pneumoniae): 4000 µg/mL

SMILES: Cl.NCC1OB2OCC(CO)Oc3cccc1c32 (stereo not drawn) [Example 11, (2-(Aminomethyl)-7,8-dihydro-2H-1,6,9-trioxa-9a-borabenzo[cd]azulen-7-yl)methanol hydrochloride]
reduced potency / loss of activity vs. P. aeruginosa compared to Example 7 (P. aeruginosa [1]): 4 fold | reduced potency / loss of activity vs. A. baumannii compared to Example 7 (A. baumannii): 4 fold

SMILES: Cl.NCC1OB2OC(CCO)COc3cccc1c32 (stereo not drawn) [Example 12, 2-(2-(Aminomethyl)-7,8-dihydro-2H-1,6,9-trioxa-9a-borabenzo[cd]azulen-8-yl)ethanol hydrochloride]
reduced potency / loss of activity vs. P. aeruginosa compared to Example 7 (P. aeruginosa [1]): 4 fold | activity vs. A. baumannii in words (A. baumannii; compared to Example 7): total loss of activity

SMILES: CC1(CO)COc2cccc3c2B(OC3CN)O1.Cl (stereo not drawn) [Example 13, (2-(Aminomethyl)-8-methyl-7,8-dihydro-2H-1,6,9-trioxa-9a-borabenzo[cd]azulen-8-yl)methanol hydrochloride]
reduced potency / loss of activity vs. A. baumannii compared to Example 7 (A. baumannii): about 4 fold

SMILES: CC(O)C1COc2cccc3c2B(OC3CN)O1.Cl (stereo not drawn) [Example 14, 1-(2-(Aminomethyl)-7,8-dihydro-2H-1,6,9-trioxa-9a-borabenzo[cd]azulen-8-yl)ethanol hydrochloride]
reduced potency / loss of activity vs. A. baumannii compared to Example 7 (A. baumannii): about 4 fold

SMILES: Cl.NC[C@H]1OB2O[C@H](CO)COc3c(F)ccc1c32 [Example 18, ((2S,8R)-2-(Aminomethyl)-5-fluoro-7,8-dihydro-2H-1,6,9-trioxa-9a-borabenzo[cd]azulen-8-yl)methanol hydrochloride]
antibacterial activity (potency) in words (Gram-negative pathogens): reduced activity

MIC (P. aeruginosa [1]): 8 µg/mL | AUC [3, 4]: ~5370 ng·h/mL
SMILES: Cl.NCC1OB(O)c2c(OCCCO)cccc21 (stereo not drawn) [Reference Example 10, 3-(Aminomethyl)-7-(3-hydroxypropoxy)benzo[c][1,2]oxaborol-1(3H)-ol hydrochloride, reference compound]
CFU reduction (P. aeruginosa [2]): about 1.3 log | CFU reduction, fold (P. aeruginosa [2]): about 20 fold

SMILES: Cl.NCC1OB(O)c2c(OCC[C@H](O)CO)cccc21 (stereo partly drawn) [compound 22, (2S)-4-((3-(Aminomethyl)-1-hydroxy-1,3-dihydrobenzo[c][1,2]oxaborol-7-yl)oxy)butane-1,2-diol hydrochloride]
antibacterial activity (potency) in words (Gram-negative pathogens): essentially inactive

SMILES: Cl.NCC1OB(O)c2c(OCC(CO)CO)cccc21 (stereo not drawn) [compound 23, 2-(((3-(Aminomethyl)-1-hydroxy-1,3-dihydrobenzo[c][1,2]oxaborol-7-yl)oxy)methyl)propane-1,3-diol hydrochloride]
antibacterial activity (potency) in words (Gram-negative pathogens): essentially inactive

SMILES: Cl.NCC1OB2OCCOc3cccc1c32 (stereo not drawn) [compound 24, (7,8-Dihydro-2H-1,6,9-trioxa-9a-borabenzo[cd]azulen-2-yl)methanamine hydrochloride, reference compound]
reduction in the bacterial colony-forming units (CFU) (P. aeruginosa [2]; [5]): about 1.7 log | reduction in the bacterial colony-forming units (CFU), fold (P. aeruginosa [2]; [5]): about 50 fold | AUC [3, 7]: ~5300 ng·h/mL

SMILES: Cl.NC[C@H]1OB(O)c2c(OCCCO)cccc21 [compound 25, (S)-3-(Aminomethyl)-7-(3-hydroxypropoxy)benzo[c][1,2]oxaborol-1(3H)-ol hydrochloride, reference compound]
reduction in the bacterial colony-forming units (CFU) (P. aeruginosa [2]; [6]): about 2.37 log | reduction in the bacterial colony-forming units (CFU), fold (P. aeruginosa [2]; [6]): about 234 fold | AUC ([3]; iv, 10 mg/kg): ~6240 ng·h/mL | antibacterial activity (potency) in words (Gram-negative pathogens): active
